Measured values taken from publication PMC3496387 (Molecular pharmaceutics, 2009).
Where two headings read alike, the source gives them in different places.

Key:
[1] = n=3
[2] = Stability in rat intestinal; type: in vitro ADME; settings: rat intestinal perfusate, similar conditions, control compound
[3] = isotonic buffer pH 1.2, 37°C, * = estimated half lives
[4] = isotonic buffer pH 4.0, 37°C, * = estimated half lives
[5] = isotonic buffer pH 6.0, 37°C, * = estimated half lives

Half lives, t1/2 [1, 3]	Half lives, t1/2 [1, 4]	Half lives, t1/2 [1, 5] [min]	SMILES	Half lives, t1/2 ([1]; isotonic buffer pH 7.4, 37°C) [min]	time to complete hydrolysis [2] [h]
1732 min	3465 ^* min	385 ± 19	CC(OC(=O)c1ccccc1)OC(=O)[C@@H](N)Cc1ccccc1 (stereo partly drawn) [BA-Et-Phe, 1-((S)-2-amino-3-phenylpropanoyloxy) ethyl benzoate]	24 ± 2	–
–	–	–	CC(C)C[C@H](NC(=O)[C@H](Cc1ccccc1)NC(=O)CNC(=O)CNC(=O)[C@@H](N)Cc1ccc(O)cc1)C(=O)O [leu-enkephalin]	–	≤ 1
193 min	385 min	2.1	NC(Cc1ccccc1)C(=O)OCOC(=O)c1ccccc1 (stereo not drawn) [BA-Me-Phe, (2-amino-3-phenylpropanoyloxy) methyl benzoate]	–	–

SMILES	Half lives, t1/2 [1, 3]	Half lives, t1/2 [1, 4]	Half lives, t1/2 [1, 5] [min]	Half lives, t1/2 ([1]; isotonic buffer pH 7.4, 37°C) [min]	time to complete hydrolysis [2] [h]
CC(OC(=O)Cc1ccccc1)OC(=O)C(N)C(C)C (stereo not drawn) [PA-Et-Val, 1-(2-phenylacetoxy) ethyl 2-amino-3-methylbutanoate]	11550 ^* min	23100 ^* min	1732.5	50 ± 14.8	–
